Laboratory results taken from ChEMBL document CHEMBL6071156 (Eur J Med Chem, 2024).
Active and inactive are the calls of the source. No cut-off for these calls is given here.

What was measured:
[1] = Half life in C57BL/6 mouse plasma at 10 mg/kg, po measured […] post dosing by LC-MS/MS; assay type: ADME, organism-based; settings: in vivo
[2] = Toxicity in C57BL/6 mouse model assessed as effect on TBILI level at 300 mg/kg/day, ip measured after 6 days post infection (reference value: 0.30 to 0.43); assay type: organism-based; settings: in vivo, 144 h, time 6 day
[3] = Metabolic stability in human liver S9 fraction assessed as half life by HPLC-MS/MS analysis; assay type: ADME, subcellular
[4] = Cytotoxicity against green monkey Vero 76 cells assessed as reduction in cell viability; assay type: toxicity, cell-based; settings: chlorocebus sabaeus
[5] = Toxicity in C57BL/6 mouse model assessed as effect on DBILI level at 300 mg/kg/day, ip measured after 6 days post infection (reference value: 0.25 to 0.33); assay type: organism-based; settings: in vivo, 144 h, time 6 day
[6] = C0 in C57BL/6 mouse plasma at 2.5 mg/kg, iv measured upto 24 hrs post dosing by LC-MS/MS; assay type: ADME, organism-based; settings: in vivo
Chikungunya virus [7] = assay: Antiviral activity against CHIKV S27 in green monkey Vero 76 cells assessed as reduction in virus-induced cytopathic effect; assay type: functional, organism-based; settings: S27, Vero 76
[8] = Toxicity in C57BL/6 mouse model assessed as effect on ALT level at 300 mg/kg/day, ip measured after 6 days post infection (reference value: 29 to 33); assay type: organism-based; settings: in vivo, 144 h, time 6 day
[9] = Toxicity in C57BL/6 mouse model assessed as effect on BUN level at 300 mg/kg/day, ip measured after 6 days post infection (reference value: 20 to 30); assay type: organism-based; settings: in vivo, 144 h, time 6 day
Cytochrome P450 2D6 = Cytochrome P450 2D6 (Homo sapiens, UniProt P10635); assay: Inhibition of CYP2D6 (unknown origin); assay type: ADME
Sequence of Cytochrome P450 2D6 (P10635 whole entry): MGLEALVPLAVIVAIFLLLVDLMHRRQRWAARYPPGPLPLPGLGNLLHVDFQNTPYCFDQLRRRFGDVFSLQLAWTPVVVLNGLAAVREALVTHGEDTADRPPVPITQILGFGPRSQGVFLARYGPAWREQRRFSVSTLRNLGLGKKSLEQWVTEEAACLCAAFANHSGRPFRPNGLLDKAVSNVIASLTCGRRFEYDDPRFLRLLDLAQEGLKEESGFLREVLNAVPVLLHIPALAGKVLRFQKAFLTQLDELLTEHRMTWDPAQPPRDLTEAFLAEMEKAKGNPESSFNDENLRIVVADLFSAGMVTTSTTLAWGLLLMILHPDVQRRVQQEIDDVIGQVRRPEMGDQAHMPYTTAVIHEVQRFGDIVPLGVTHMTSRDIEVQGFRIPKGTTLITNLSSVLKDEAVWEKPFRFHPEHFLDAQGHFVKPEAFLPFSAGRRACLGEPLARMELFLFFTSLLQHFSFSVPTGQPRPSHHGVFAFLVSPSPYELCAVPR

[10] = Half life in C57BL/6 mouse plasma at 2.5 mg/kg, iv measured upto 24 hrs post dosing by LC-MS/MS; assay type: ADME, organism-based; settings: in vivo
[11] = target: Polyprotein P1234 (Chikungunya virus (strain S27-African prototype) (CHIKV)) (UniProt Q8JUX6); settings: dose 0.27-600 µM, time 2000-8000 sec
Sequence of Polyprotein P1234 (Chikungunya virus (strain S27-African prototype) (CHIKV)) (Q8JUX6 whole entry): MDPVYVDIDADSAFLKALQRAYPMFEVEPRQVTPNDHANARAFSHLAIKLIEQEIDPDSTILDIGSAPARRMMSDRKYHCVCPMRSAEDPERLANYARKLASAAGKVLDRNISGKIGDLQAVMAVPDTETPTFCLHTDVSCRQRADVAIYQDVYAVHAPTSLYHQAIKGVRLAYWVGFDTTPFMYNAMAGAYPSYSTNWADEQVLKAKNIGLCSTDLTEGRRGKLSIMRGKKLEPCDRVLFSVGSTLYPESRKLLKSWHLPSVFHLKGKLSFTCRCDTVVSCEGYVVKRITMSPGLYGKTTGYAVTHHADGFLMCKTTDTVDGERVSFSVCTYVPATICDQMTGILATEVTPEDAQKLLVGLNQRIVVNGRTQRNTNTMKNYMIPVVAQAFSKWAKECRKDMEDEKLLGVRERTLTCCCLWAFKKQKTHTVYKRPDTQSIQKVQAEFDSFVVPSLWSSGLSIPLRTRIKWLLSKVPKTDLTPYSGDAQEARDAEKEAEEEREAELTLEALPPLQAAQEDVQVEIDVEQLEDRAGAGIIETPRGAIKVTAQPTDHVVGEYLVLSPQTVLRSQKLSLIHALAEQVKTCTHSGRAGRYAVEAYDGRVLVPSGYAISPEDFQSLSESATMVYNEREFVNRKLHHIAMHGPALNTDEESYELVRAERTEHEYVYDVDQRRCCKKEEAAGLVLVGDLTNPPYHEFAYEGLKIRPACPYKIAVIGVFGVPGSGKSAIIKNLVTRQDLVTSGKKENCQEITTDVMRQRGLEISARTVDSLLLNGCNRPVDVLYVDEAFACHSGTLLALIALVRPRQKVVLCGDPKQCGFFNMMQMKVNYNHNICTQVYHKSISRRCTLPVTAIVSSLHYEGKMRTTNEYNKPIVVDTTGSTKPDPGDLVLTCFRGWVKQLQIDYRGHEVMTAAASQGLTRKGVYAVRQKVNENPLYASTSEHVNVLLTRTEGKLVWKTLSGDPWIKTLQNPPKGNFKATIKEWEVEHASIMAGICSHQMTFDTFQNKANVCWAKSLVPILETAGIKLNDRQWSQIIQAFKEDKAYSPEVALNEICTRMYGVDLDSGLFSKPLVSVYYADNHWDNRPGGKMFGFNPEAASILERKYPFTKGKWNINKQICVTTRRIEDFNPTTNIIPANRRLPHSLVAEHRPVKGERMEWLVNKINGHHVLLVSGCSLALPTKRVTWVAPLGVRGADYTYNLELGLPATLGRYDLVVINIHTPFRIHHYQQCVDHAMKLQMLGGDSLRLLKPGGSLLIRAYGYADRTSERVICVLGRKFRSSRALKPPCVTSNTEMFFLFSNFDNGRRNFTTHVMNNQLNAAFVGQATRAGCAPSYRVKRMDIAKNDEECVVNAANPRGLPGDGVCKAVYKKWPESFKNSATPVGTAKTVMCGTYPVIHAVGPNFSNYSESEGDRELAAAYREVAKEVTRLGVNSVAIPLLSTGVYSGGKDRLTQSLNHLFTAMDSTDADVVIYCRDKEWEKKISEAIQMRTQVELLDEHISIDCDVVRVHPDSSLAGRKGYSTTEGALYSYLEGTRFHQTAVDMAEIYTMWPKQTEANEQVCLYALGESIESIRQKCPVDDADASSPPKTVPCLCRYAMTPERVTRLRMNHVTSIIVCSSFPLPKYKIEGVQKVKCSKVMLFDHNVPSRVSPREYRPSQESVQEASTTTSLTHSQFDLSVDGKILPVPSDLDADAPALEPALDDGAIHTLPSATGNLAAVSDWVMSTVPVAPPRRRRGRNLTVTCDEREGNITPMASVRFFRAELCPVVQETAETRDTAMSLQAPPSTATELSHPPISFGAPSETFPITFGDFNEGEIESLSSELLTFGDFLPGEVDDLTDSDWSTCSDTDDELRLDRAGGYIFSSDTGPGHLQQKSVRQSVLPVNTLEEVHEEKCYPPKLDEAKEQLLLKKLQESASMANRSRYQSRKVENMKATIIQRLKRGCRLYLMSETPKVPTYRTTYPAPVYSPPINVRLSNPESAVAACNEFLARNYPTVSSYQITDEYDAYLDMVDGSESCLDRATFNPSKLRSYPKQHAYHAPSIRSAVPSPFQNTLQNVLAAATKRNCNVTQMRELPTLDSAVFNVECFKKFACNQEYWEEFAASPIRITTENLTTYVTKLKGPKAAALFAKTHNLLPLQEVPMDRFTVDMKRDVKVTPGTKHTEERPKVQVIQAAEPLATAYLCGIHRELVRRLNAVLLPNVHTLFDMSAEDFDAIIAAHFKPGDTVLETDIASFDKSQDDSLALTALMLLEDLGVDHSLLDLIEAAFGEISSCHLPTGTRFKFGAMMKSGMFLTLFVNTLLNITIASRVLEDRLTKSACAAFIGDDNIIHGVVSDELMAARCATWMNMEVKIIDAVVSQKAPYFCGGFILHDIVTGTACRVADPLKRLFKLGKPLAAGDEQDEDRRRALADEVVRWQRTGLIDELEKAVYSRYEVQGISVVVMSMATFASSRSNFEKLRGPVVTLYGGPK

[12] = Toxicity in Sham-infected C57BL/6 mouse model assessed as footpad swelling at 300 mg/kg/day, ip measured after 6 days post infection (reference value: -4.6+/-5.5); assay type: organism-based; settings: in vivo, 144 h, time 6 day
[13] = target: Voltage-gated inwardly rectifying potassium channel KCNH2 (Homo sapiens, UniProt Q12809); assay: Antagonist activity at recombinant hERG expressed in CHO-K1 cells by Electrophysiology; assay type: toxicity, cell-based
Sequence of Voltage-gated inwardly rectifying potassium channel KCNH2 (Q12809 whole entry): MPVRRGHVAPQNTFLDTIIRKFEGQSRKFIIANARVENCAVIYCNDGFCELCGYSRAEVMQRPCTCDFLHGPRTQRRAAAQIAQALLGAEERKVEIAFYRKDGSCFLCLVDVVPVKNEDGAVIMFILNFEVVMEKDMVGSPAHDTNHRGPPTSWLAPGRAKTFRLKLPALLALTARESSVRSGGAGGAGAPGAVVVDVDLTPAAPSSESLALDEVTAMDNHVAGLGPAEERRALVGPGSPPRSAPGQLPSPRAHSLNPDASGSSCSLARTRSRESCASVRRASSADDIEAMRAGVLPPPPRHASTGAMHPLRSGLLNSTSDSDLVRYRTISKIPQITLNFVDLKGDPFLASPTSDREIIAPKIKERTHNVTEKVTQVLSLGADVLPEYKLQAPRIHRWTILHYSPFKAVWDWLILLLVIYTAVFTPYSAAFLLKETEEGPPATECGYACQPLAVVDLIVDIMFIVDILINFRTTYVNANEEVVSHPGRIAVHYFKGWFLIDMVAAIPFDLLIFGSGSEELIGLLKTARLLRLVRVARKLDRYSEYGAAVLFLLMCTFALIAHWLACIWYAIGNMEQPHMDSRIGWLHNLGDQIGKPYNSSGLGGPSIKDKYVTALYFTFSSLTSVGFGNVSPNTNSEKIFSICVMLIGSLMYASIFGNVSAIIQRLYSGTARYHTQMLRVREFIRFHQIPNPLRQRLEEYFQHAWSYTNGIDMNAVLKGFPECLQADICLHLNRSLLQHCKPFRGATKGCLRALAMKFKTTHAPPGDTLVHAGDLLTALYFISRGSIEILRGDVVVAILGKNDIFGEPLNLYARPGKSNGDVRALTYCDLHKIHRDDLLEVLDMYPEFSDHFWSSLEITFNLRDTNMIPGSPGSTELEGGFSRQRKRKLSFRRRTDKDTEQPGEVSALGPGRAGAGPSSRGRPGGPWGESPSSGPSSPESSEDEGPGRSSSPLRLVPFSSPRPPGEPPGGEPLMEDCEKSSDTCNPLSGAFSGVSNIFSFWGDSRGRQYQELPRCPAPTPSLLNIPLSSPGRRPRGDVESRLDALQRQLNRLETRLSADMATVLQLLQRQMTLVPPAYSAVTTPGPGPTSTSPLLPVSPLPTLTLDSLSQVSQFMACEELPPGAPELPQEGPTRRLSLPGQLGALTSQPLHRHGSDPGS

Cytochrome P450 2C8 = target: T1, Cytochrome P450 2C8 (Homo sapiens, UniProt P10632); assay: Inhibition of CYP2C8 (unknown origin); assay type: ADME
T1 sequence (P10632 whole entry): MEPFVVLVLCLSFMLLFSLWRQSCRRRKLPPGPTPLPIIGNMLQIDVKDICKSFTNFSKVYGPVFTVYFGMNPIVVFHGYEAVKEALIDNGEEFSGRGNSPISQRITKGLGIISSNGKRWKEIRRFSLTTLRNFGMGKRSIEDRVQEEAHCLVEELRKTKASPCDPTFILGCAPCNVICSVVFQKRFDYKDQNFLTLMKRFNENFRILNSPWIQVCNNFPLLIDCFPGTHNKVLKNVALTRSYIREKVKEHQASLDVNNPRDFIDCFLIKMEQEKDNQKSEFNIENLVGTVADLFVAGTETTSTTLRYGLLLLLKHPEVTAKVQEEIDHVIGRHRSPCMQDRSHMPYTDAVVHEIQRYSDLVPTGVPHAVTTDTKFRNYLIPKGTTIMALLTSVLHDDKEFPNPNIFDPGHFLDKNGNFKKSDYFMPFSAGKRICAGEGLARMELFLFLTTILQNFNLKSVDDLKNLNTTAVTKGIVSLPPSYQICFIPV

[14] = Metabolic stability in CD-1 mouse liver microsomes assessed as half life by HPLC-MS/MS analysis; assay type: ADME, Microsome
Cytochrome P450 3A4 = Cytochrome P450 3A4 (Homo sapiens, UniProt P08684); assay: Inhibition of CYP3A4 (unknown origin); assay type: ADME
Sequence of Cytochrome P450 3A4 (P08684 whole entry): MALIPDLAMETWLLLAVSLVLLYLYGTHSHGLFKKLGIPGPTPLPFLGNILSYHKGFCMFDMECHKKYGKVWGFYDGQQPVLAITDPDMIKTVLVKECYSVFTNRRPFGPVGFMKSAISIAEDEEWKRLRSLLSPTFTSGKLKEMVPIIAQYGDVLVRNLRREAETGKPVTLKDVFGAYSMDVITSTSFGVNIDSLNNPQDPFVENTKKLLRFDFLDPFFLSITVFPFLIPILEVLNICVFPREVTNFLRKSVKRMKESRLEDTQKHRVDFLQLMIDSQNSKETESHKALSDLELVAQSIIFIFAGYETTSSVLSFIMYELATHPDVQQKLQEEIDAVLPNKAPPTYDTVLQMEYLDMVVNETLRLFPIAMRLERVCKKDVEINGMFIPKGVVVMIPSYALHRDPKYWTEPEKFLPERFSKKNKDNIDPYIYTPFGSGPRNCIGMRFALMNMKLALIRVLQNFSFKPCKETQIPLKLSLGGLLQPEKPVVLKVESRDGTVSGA

Chikungunya virus [15] = assay: Antiviral activity against CHIKV infected in C57BL/6 mouse assessed as footpad swelling at 100 mg/kg/day, ip measured after 6 days post infection (reference value: 40.9+/-12.4); assay type: functional; settings: time 6 day
[16] = Metabolic stability in human liver microsomes assessed as intrinsic clearance by HPLC-MS/MS analysis; assay type: ADME, Microsome
[17] = Metabolic stability in human liver S9 fraction assessed as intrinsic clearance by HPLC-MS/MS analysis; assay type: ADME, subcellular
Cytochrome P450 3A = Cytochrome P450 3A (Homo sapiens, UniProt P08684+P20815+Q9HB55+P24462); assay: Inhibition of CYP3A in human liver microsomes using testosterone as substrate; assay type: ADME, Microsome
Kir2.1 = assay: Antagonist activity at hKir2.1 expressed in HEK293 cells by Electrophysiology; assay type: toxicity, cell-based; settings: human, HEK293 cells expressing hKir2.1
Cav1.2 = assay: Antagonist activity at hCav1.2 expressed in HEK293 cells by Electrophysiology; assay type: toxicity, cell-based; settings: human, HEK293 cells expressing hCav1.2
[18] = Cmax in C57BL/6 mouse plasma at 10 mg/kg, po measured upto 24 hrs post dosing by LC-MS/MS; assay type: ADME, organism-based; settings: in vivo
[19] = MRT in C57BL/6 mouse plasma at 10 mg/kg, po measured upto 24 hrs post dosing by LC-MS/MS; assay type: ADME, organism-based; settings: in vivo
[20] = Volume in the terminal state in C57BL/6 mouse plasma at 2.5 mg/kg, iv measured upto 24 hrs post dosing by LC-MS/MS; assay type: ADME, organism-based; settings: in vivo
Chikungunya virus [21] = assay type: functional, organism-based; settings: dose 300.0 mg/kg/day, time 5-6 day
Chikungunya virus [22] = assay: Antiviral activity against CHIKV S27 in green monkey Vero 76 cells assessed as reduction in virus yield measured after 3 days by Virus yield reduction assay; assay type: functional; settings: S27, Vero 76, 72 h, time 3 day
[23] = Volume of distribution at steady state in C57BL/6 mouse plasma at 2.5 mg/kg, iv measured upto 24 hrs post dosing by LC-MS/MS; assay type: ADME, organism-based; settings: in vivo
Cytochrome P450 2B6 = target: T2, Cytochrome P450 2B6 (Homo sapiens, UniProt P20813); assay: Inhibition of CYP2B6 (unknown origin); assay type: ADME
T2 sequence (P20813 whole entry): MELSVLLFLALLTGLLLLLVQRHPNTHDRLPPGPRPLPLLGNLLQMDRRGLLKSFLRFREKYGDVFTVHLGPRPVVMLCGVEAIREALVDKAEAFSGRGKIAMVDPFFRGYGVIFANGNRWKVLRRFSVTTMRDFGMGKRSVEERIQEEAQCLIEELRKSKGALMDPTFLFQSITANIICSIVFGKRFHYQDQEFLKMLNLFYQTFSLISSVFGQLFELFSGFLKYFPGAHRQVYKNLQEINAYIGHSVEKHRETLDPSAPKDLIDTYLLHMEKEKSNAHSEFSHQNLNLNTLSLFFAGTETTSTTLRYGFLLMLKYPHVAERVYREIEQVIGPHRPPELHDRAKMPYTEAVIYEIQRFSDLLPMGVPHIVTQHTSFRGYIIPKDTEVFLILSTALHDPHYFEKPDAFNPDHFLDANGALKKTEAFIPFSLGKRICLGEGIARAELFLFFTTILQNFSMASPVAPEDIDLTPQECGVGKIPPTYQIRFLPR

## CC1CCNc2c(C(=O)NC/C=C/S(C)(=O)=O)cccc21 (stereo not given)
[1]
  t1/2: 0.83 h
[2]
  Activity: 0.34 mg/dL
[3]
  t1/2: 1.73 h
[4]
  CC50: > 50 µM
[5]
  Activity: 0.14 mg/dL
[6]
  C0: 966.5 ng/mL
Chikungunya virus [7]
  EC50: 0.39 µM
[8]
  Activity: 28 U/L
[9]
  Activity: 18 mg/dL
Cytochrome P450 2D6
  IC50: > 100 µM
[10]
  t1/2: 6 min
[11]
  TDI: Active
[12]
  Activity: -1%
[13]
  IC50: > 100 µM
Cytochrome P450 2C8
  IC50: > 100 µM
[14]
  t1/2: > 2 h
Cytochrome P450 3A4
  IC50: > 100 µM
Chikungunya virus [15]
  Activity: 23.7%
[16]
  CLH: < 57.8 µL/min/mg
[17]
  CLH: 22.7 µL/min/mg
Cytochrome P450 3A
  IC50: < 0.03 µM
Kir2.1
  IC50: > 100 µM
Cav1.2
  IC50: > 100 µM
[18]
  Cmax: 125 ng/mL
[19]
  MRT: 4.25 h
[20]
  Vz: 4.5 L/kg
Chikungunya virus [21]
  Activity: Active
Chikungunya virus [22]
  EC90: 1.6 µM
[23]
  Vdss: 1.9 L/kg
Cytochrome P450 2B6
  IC50: > 100 µM
